Patent US8076487B2, “Pyridone derivative and herbicide” (Kumiai Chemical Industry Co., Ltd., priority 2006, dated 2011)

Assays:
Format in all cases: in vivo
[1] = system: heartshape false pickerelweed (Monochoria vaginalis (Burm.f.) C.Presl); assay: Test Example 1: herbicidal effect by soil application to paddy field; details: for herbicidal effect, Monochoria vaginalis (Burm. f.) C. Presl: paddy field soil application, active ingredient 1,000 g per 1 hectare, wettable powder added dropwise to water surface the day after sowing, examined on the 21st day after application
Outline: (§1)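 Under greenhouse conditions, seeds sown on puddled paddy soil in 100 cm2 pots under 3 cm of standing water received the test compound; injury was assessed with a standard scoring scheme three weeks (day 21) after treatment.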

[2] = system: Japanese bulrush (Scirpus juncoides Roxb.); assay: as above; details: for herbicidal effect, Scirpus juncoides Roxb.: paddy field soil application, active ingredient 1,000 g per 1 hectare, wettable powder added dropwise to water surface the day after sowing, examined on the 21st day after application
Outline: as §1

[3] = system: early watergrass (Echinochloa oryzicola Vasing); assay: as above; details: for herbicidal effect, Echinochloa oryzicola Vasing: paddy field soil application, active ingredient 1,000 g per 1 hectare, wettable powder added dropwise to water surface the day after sowing, examined on the 21st day after application
Outline: as §1

[4] = system: slender amaranth (Amaranthus viridis L.); assay: Test Example 3: herbicidal effect by application to upland field (foliage treatment); details: 14th day after application; for herbicidal effect, Slender Amaranth: foliage treatment, 1,000 g active ingredient per 1 hectare, greenhouse; for herbicidal effect (index), Slender Amaranth: foliage treatment, plants grown two weeks, 1,000 g active ingredient per hectare
Outline: (§2)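 A single foliar application of a water-diluted wettable powder, at 1,000 g of active ingredient per hectare, was made to plants raised for two weeks from seed in field soil. Herbicidal activity was judged visually after a further 14 days in the greenhouse.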

[5] = system: velvetleaf (Abutilon theophrasti medicus); assay: as above; details: 14th day after application; for herbicidal effect, Velvetleaf: foliage treatment, 1,000 g active ingredient per 1 hectare, greenhouse; for herbicidal effect (index), Velvetleaf: foliage treatment, plants grown two weeks, 1,000 g active ingredient per hectare
Outline: as §2

[6] = system: barnyardgrass (Echinochloa crus-galli (L.) P. Beauv. var. crus-galli); assay: as above; details: 14th day after application; for herbicidal effect, Barnyardgrass: foliage treatment, 1,000 g active ingredient per 1 hectare, greenhouse; for herbicidal effect (index), Barnyardgrass: foliage treatment, plants grown two weeks, 1,000 g active ingredient per hectare
Outline: as §2

[7] = system: green foxtail (Setaria viridis (L.) P. Beauv.); assay: as above; details: 14th day after application; for herbicidal effect, Green Foxtail: foliage treatment, 1,000 g active ingredient per 1 hectare, greenhouse; for herbicidal effect (index), Green Foxtail: foliage treatment, plants grown two weeks, 1,000 g active ingredient per hectare
Outline: as §2

[8] = system: slender amaranth (Amaranthus viridis L.); assay: Test Example 2: herbicidal effect by soil application to upland field; details: soil surface spray, upland field soil, 1,000 g active ingredient per hectare, 21st day after application
Outline: (§3)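 Seeds were sown in field soil, covered, and the soil surface sprayed with a water-diluted wettable powder at 1,000 g active ingredient per hectare in 1,000 L/ha. Plants grew in a greenhouse, and herbicidal effect was rated against a standard scale 21 days after application.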

[9] = system: velvetleaf (Abutilon theophrasti medicus); assay: as above; details: soil surface spray, upland field soil, 1,000 g active ingredient per hectare, 21st day after application
Outline: as §3

[10] = system: barnyardgrass (Echinochloa crus-galli (L.) P. Beauv. var. crus-galli); assay: as above; details: soil surface spray, upland field soil, 1,000 g active ingredient per hectare, 21st day after application
Outline: as §3

[11] = system: green foxtail (Setaria viridis (L.) P. Beauv.); assay: as above; details: soil surface spray, upland field soil, 1,000 g active ingredient per hectare, 21st day after application
Outline: as §3

[12] = soil application to paddy field, rated by standard of Table 34

COc1ccc(-n2c(C(F)(F)F)ccc(C(=O)c3cnn(C)c3O)c2=O)cc1F [IV-92]
herbicidal effect, Monochoria vaginalis (Burm. f.) C. Presl [1]: 5 (90% or more of herbicidal effect and crop phytotoxicity)
herbicidal effect, Scirpus juncoides Roxb. [2]: 5 (90% or more of herbicidal effect and crop phytotoxicity)
herbicidal effect, Echinochloa oryzicola Vasing [3]: 5 (90% or more of herbicidal effect and crop phytotoxicity)
herbicidal effect, Slender Amaranth [4]: 5 (90% or more of herbicidal effect and crop phytotoxicity)
herbicidal effect, Velvetleaf [5]: 4 (70 to less than 90% of herbicidal effect and crop phytotoxicity)
herbicidal effect, Barnyardgrass [6]: 4 (70 to less than 90% of herbicidal effect and crop phytotoxicity)
herbicidal effect, Green Foxtail [7]: 4 (70 to less than 90% of herbicidal effect and crop phytotoxicity)
herbicidal effect (index), Slender Amaranth [8]: 5 (90% or more of herbicidal effect and crop phytotoxicity)
herbicidal effect (index), Velvetleaf [9]: 5 (90% or more of herbicidal effect and crop phytotoxicity)
herbicidal effect (index), Barnyardgrass [10]: 5 (90% or more of herbicidal effect and crop phytotoxicity)
herbicidal effect (index), Green Foxtail [11]: 5 (90% or more of herbicidal effect and crop phytotoxicity)

O=C1CCCC(O)=C1C(=O)c1ccc(C(F)(F)F)n(-c2ccc(Br)cc2)c1=O [I-90]
herbicidal effect, Monochoria vaginalis (Burm. f.) C. Presl [1]: 5 (90% or more of herbicidal effect and crop phytotoxicity)
herbicidal effect, Scirpus juncoides Roxb. [2]: 5 (90% or more of herbicidal effect and crop phytotoxicity)
herbicidal effect, Echinochloa oryzicola Vasing [3]: 5 (90% or more of herbicidal effect and crop phytotoxicity)
herbicidal effect (index), Slender Amaranth [4]: 5 (90% or more of herbicidal effect and crop phytotoxicity)
herbicidal effect (index), Velvetleaf [5]: 5 (90% or more of herbicidal effect and crop phytotoxicity)
herbicidal effect (index), Barnyardgrass [6]: 5 (90% or more of herbicidal effect and crop phytotoxicity)
herbicidal effect (index), Green Foxtail [7]: 5 (90% or more of herbicidal effect and crop phytotoxicity)
herbicidal effect (index), Slender Amaranth [8]: 5 (90% or more of herbicidal effect and crop phytotoxicity)
herbicidal effect (index), Velvetleaf [9]: 5 (90% or more of herbicidal effect and crop phytotoxicity)
herbicidal effect (index), Barnyardgrass [10]: 5 (90% or more of herbicidal effect and crop phytotoxicity)
herbicidal effect (index), Green Foxtail [11]: 5 (90% or more of herbicidal effect and crop phytotoxicity)

Cc1ccc(-n2c(C(F)(F)F)ccc(C(=O)C3=C(O)CCCC3=O)c2=O)cc1 [I-89]
herbicidal effect, Monochoria vaginalis (Burm. f.) C. Presl [1]: 5 (90% or more of herbicidal effect and crop phytotoxicity)
herbicidal effect, Scirpus juncoides Roxb. [2]: 5 (90% or more of herbicidal effect and crop phytotoxicity)
herbicidal effect, Echinochloa oryzicola Vasing [3]: 5 (90% or more of herbicidal effect and crop phytotoxicity)
herbicidal effect (index), Slender Amaranth [4]: 5 (90% or more of herbicidal effect and crop phytotoxicity)
herbicidal effect (index), Velvetleaf [5]: 5 (90% or more of herbicidal effect and crop phytotoxicity)
herbicidal effect (index), Barnyardgrass [6]: 5 (90% or more of herbicidal effect and crop phytotoxicity)
herbicidal effect (index), Green Foxtail [7]: 5 (90% or more of herbicidal effect and crop phytotoxicity)
herbicidal effect (index), Slender Amaranth [8]: 5 (90% or more of herbicidal effect and crop phytotoxicity)
herbicidal effect (index), Velvetleaf [9]: 5 (90% or more of herbicidal effect and crop phytotoxicity)
herbicidal effect (index), Barnyardgrass [10]: 5 (90% or more of herbicidal effect and crop phytotoxicity)
herbicidal effect (index), Green Foxtail [11]: 5 (90% or more of herbicidal effect and crop phytotoxicity)

Cn1ncc(C(=O)c2ccc(C(F)(F)F)n(-c3cc(F)ccc3F)c2=O)c1O [IV-83]
herbicidal effect, Monochoria vaginalis (Burm. f.) C. Presl [1]: 5 (90% or more of herbicidal effect and crop phytotoxicity)
herbicidal effect, Scirpus juncoides Roxb. [2]: 5 (90% or more of herbicidal effect and crop phytotoxicity)
herbicidal effect, Echinochloa oryzicola Vasing [3]: 5 (90% or more of herbicidal effect and crop phytotoxicity)
herbicidal effect, Slender Amaranth [4]: 5 (90% or more of herbicidal effect and crop phytotoxicity)
herbicidal effect, Velvetleaf [5]: 5 (90% or more of herbicidal effect and crop phytotoxicity)
herbicidal effect, Barnyardgrass [6]: 5 (90% or more of herbicidal effect and crop phytotoxicity)
herbicidal effect, Green Foxtail [7]: 5 (90% or more of herbicidal effect and crop phytotoxicity)
herbicidal effect (index), Slender Amaranth [8]: 5 (90% or more of herbicidal effect and crop phytotoxicity)
herbicidal effect (index), Velvetleaf [9]: 5 (90% or more of herbicidal effect and crop phytotoxicity)
herbicidal effect (index), Barnyardgrass [10]: 5 (90% or more of herbicidal effect and crop phytotoxicity)
herbicidal effect (index), Green Foxtail [11]: 5 (90% or more of herbicidal effect and crop phytotoxicity)

Cn1ncc(C(=O)c2ccc(C(F)(F)F)n(C)c2=O)c1OC(=O)OCc1ccccc1 [IV-199]
herbicidal effect, Monochoria vaginalis (Burm. f.) C. Presl [1]: 5 (90% or more of herbicidal effect and crop phytotoxicity)
herbicidal effect, Scirpus juncoides Roxb. [2]: 5 (90% or more of herbicidal effect and crop phytotoxicity)
herbicidal effect, Echinochloa oryzicola Vasing [3]: 5 (90% or more of herbicidal effect and crop phytotoxicity)
herbicidal effect, Slender Amaranth [4]: 5 (90% or more of herbicidal effect and crop phytotoxicity)
herbicidal effect, Velvetleaf [5]: 5 (90% or more of herbicidal effect and crop phytotoxicity)
herbicidal effect, Barnyardgrass [6]: 4 (70 to less than 90% of herbicidal effect and crop phytotoxicity)
herbicidal effect, Green Foxtail [7]: 3 (50 to less than 70% of herbicidal effect and crop phytotoxicity)
herbicidal effect (index), Slender Amaranth [8]: 5 (90% or more of herbicidal effect and crop phytotoxicity)
herbicidal effect (index), Velvetleaf [9]: 5 (90% or more of herbicidal effect and crop phytotoxicity)
herbicidal effect (index), Barnyardgrass [10]: 5 (90% or more of herbicidal effect and crop phytotoxicity)
herbicidal effect (index), Green Foxtail [11]: 4 (70 to less than 90% of herbicidal effect and crop phytotoxicity)

O=C1CCCC(O)=C1C(=O)c1cnccn1 [Comparative Compound 1, reference compound]
herbicidal effect (index), Monochoria vaginalis (Burm.f.) C.Presl [1, 12]: 0 (0 to less than 10% of herbicidal effect and crop phytotoxicity)
herbicidal effect (index), Scirpus juncoides Roxb. [2, 12]: 0 (0 to less than 10% of herbicidal effect and crop phytotoxicity)
herbicidal effect (index), Echinochloa oryzicola Vasing [3, 12]: 1 (10 to less than 30% of herbicidal effect and crop phytotoxicity)
herbicidal effect, Slender Amaranth [4]: 1 (10 to less than 30% of herbicidal effect and crop phytotoxicity)
herbicidal effect, Velvetleaf [5]: 2 (30 to less than 50% of herbicidal effect and crop phytotoxicity)
herbicidal effect, Barnyardgrass [6]: 0 (0 to less than 10% of herbicidal effect and crop phytotoxicity)
herbicidal effect, Green Foxtail [7]: 0 (0 to less than 10% of herbicidal effect and crop phytotoxicity)
herbicidal effect (index), Slender Amaranth [8]: 0 (0 to less than 10% of herbicidal effect and crop phytotoxicity)
herbicidal effect (index), Velvetleaf [9]: 1 (10 to less than 30% of herbicidal effect and crop phytotoxicity)
herbicidal effect (index), Barnyardgrass [10]: 1 (10 to less than 30% of herbicidal effect and crop phytotoxicity)
herbicidal effect (index), Green Foxtail [11]: 1 (10 to less than 30% of herbicidal effect and crop phytotoxicity)

COCCNn1c(C(F)(F)F)ccc(C(=O)C2=C(O)CCCC2=O)c1=O [I-169]
herbicidal effect, Monochoria vaginalis (Burm. f.) C. Presl [1]: 5 (90% or more of herbicidal effect and crop phytotoxicity)
herbicidal effect, Scirpus juncoides Roxb. [2]: 5 (90% or more of herbicidal effect and crop phytotoxicity)
herbicidal effect, Echinochloa oryzicola Vasing [3]: 5 (90% or more of herbicidal effect and crop phytotoxicity)
herbicidal effect, Slender Amaranth [4]: 5 (90% or more of herbicidal effect and crop phytotoxicity)
herbicidal effect, Velvetleaf [5]: 5 (90% or more of herbicidal effect and crop phytotoxicity)
herbicidal effect, Barnyardgrass [6]: 5 (90% or more of herbicidal effect and crop phytotoxicity)
herbicidal effect, Green Foxtail [7]: 5 (90% or more of herbicidal effect and crop phytotoxicity)
herbicidal effect (index), Slender Amaranth [8]: 5 (90% or more of herbicidal effect and crop phytotoxicity)
herbicidal effect (index), Velvetleaf [9]: 5 (90% or more of herbicidal effect and crop phytotoxicity)
herbicidal effect (index), Barnyardgrass [10]: 5 (90% or more of herbicidal effect and crop phytotoxicity)
herbicidal effect (index), Green Foxtail [11]: 5 (90% or more of herbicidal effect and crop phytotoxicity)

C=CCn1c(C(F)(F)F)ccc(C(=O)c2cnn(C)c2O)c1=O [IV-11]
herbicidal effect, Monochoria vaginalis (Burm. f.) C. Presl [1]: 5 (90% or more of herbicidal effect and crop phytotoxicity)
herbicidal effect, Scirpus juncoides Roxb. [2]: 5 (90% or more of herbicidal effect and crop phytotoxicity)
herbicidal effect, Echinochloa oryzicola Vasing [3]: 5 (90% or more of herbicidal effect and crop phytotoxicity)
herbicidal effect, Slender Amaranth [4]: 5 (90% or more of herbicidal effect and crop phytotoxicity)
herbicidal effect, Velvetleaf [5]: 5 (90% or more of herbicidal effect and crop phytotoxicity)
herbicidal effect, Barnyardgrass [6]: 5 (90% or more of herbicidal effect and crop phytotoxicity)
herbicidal effect, Green Foxtail [7]: 5 (90% or more of herbicidal effect and crop phytotoxicity)
herbicidal effect (index), Slender Amaranth [8]: 5 (90% or more of herbicidal effect and crop phytotoxicity)
herbicidal effect (index), Velvetleaf [9]: 5 (90% or more of herbicidal effect and crop phytotoxicity)
herbicidal effect (index), Barnyardgrass [10]: 5 (90% or more of herbicidal effect and crop phytotoxicity)
herbicidal effect (index), Green Foxtail [11]: 4 (70 to less than 90% of herbicidal effect and crop phytotoxicity)
